# Values quoted from earlier work in patent US20010000228A1, “Use of a modified baculovirus containing exogenous nucleic acid for the manufacture of a medicament for delivering said nucleic acid to the hepatocytes” (IMPERIAL COLLEGE INNOVATIONS LIMITED, priority 1997, published 2001).
# System: HBV
# Details: therapy against HBV
substance,measurement,value
Interferon α,cases in which therapy is effective,around 30%
